# In patent publication US20100218416A1, “HYDROXYMETHYLFURFURAL ETHERS FROM SUGARS OR HMF AND BRANCHED ALCOHOLS” (FURANIX TECHNOLOGIES B.V., priority 2007, published 2010):
# Like-named read-outs stand apart in the source and are kept apart here.
# What was measured:
# [1] = Fuel solubility: miscibility in blends with commercial diesel; type: physicochemical
# Text: Fuel solubility is a primary concern for diesel fuel applications. Not all highly polar oxygenates have good solubility in the current commercial diesel fuels.
# The engine is run stationary with regular diesel initially, after which the fuel supply is switched to the 40 vol % tBMF-diesel blend.
# [2] = Oxidation stability of blend with additive free diesel fuel (NF en ISO 12205); type: physicochemical; settings: 0.1 vol % blend with additive free diesel fuel
# Method: Likewise, oxygenated fuel additives, certainly when containing an aldehyde functional group, often reduce the oxidation stability of the base diesel fuel. A 0.1 vol % blend of tBMF with additive free diesel fuel was prepared at an outside laboratory for oxidation stability determination according to NF en ISO 12205 certified methods.
miscibility with commercial diesel ([1]; 5 vol % blend with commercial diesel),miscibility with commercial diesel ([1]; 25 vol % blend with commercial diesel),miscibility with commercial diesel ([1]; 40 vol % blend with commercial diesel),Structure (SMILES),miscibility with commercial diesel [1],mixing or flocculation problems [1],oxidation stability versus reference additive-free diesel [2]
completely miscible,phase separation occurs,phase separation occurs,"CCOCc1ccc(C=O)o1 [EMF, ethoxymethylfurfural, reference compound]",–,–,–
–,–,–,"CC(C)(C)OCc1ccc(C=O)o1 [tBMF, 5-(tert-Butoxymethyl)furfural]",completely miscible,does not yield any mixing or flocculation problems,same oxidation stability
